Measurements taken from US20230373972A1, “PIPERAZINE DERIVATIVE, PREPARATION METHOD THEREFOR AND USE THEREOF” (Zhejiang Hisun Pharmaceutical Co., Ltd., priority 2020, published 2023).

What was measured:
human plasma = experiment: In-vitro anticoagulation on human plasma (APTT kit, coagulation time); settings: concentration of the compound when the coagulation time (APTT) was prolonged twice
Description: The following method was used to determine the in-vitro anticoagulation of the compound of the present invention in the human plasma. In the method, an APTT kit of the MediRox company was used to test. The APTT kit was purchased from MediRox (article number MRX930), and the human plasma was prepared internally.
The preparation of the human plasma was briefly described as follows: human plasma was collected in a blood collection tube containing sodium citrate, and centrifuged at 3,000 rpm for 10 minutes at room temperature, and plasma was collected, and packaged separately and stored at −80° C.
An APTT test process was briefly described as follows: a test compound was dissolved in DMSO to prepare a 10 mM storage solution first, then the test compound was diluted with DMSO by a triple gradient, and a final concentration of the test compound in a reaction system ranged from 217 μM to 0.03 μM. 4 μL, of test compounds at different concentrations diluted with DMSO were added to a centrifuge tube containing 180 μL of plasma, and 4 μL of DMSO was added to a blank group, shaken and mixed evenly, and incubated at 37° C. for 5 minutes. Subsequently, an APTT reagent was placed in a reagent holder according to instrument requirements, the incubated plasma sample was placed in a detection position of a coagulation analyzer, and a coagulation time was determined and recorded (s). With a final concentration of the compound as an abscissa and Ratio (Ratio=TiT0, wherein T0 was a coagulation time of a blank control, and Ti was a coagulation time of a compound to be tested) as an ordinate, a coagulation dose-effect curve was drawn by Graph Pad Prisms, and a concentration of the compound when the coagulation time was prolonged twice was calculated, which was namely a CT2 value, as shown in Table 2.

[1] = molecular target: T1, Native human Factor XIa protease (Homo sapiens, UniProt P03951); experiment: Inhibition of activity of Factor XIa protease (chromogenic substrate S-2366); type: biochemical; settings: S-2366 1 mM, 37° C. 10 minutes, absorption at 405 nm
T1 construct: The Native human Factor XIa protease was purchased from Abcam; purchased Abcam ab62411
Source text: The following method was used to determine an inhibition degree of the compound of the present invention on an activity of Native human Factor XIa protease in vitro. In the method, a Factor XIa chromogenic substrate was used to test the inhibition degree on the activity of the Factor XIa protease. The Native human Factor XIa protease was purchased from Abcam (article number ab62411), and S-2366 was purchased from Chromogenix (article number 82109039). An experimental process was briefly described as follows: a test compound was dissolved in DMSO to prepare a 10 mM storage solution first, then the compound was diluted with a Factor XIa reaction buffer (100 mM Tris-HCl, 200 mM NaCl, 0.02% Tween 20, pH 7.4) by a quadruple gradient, and a final concentration of the test compound in a reaction system ranged from 10,000 nM to […]. The reaction was carried out in a 384-well microplate. 2 μL of the test compounds at different concentrations diluted with the reaction buffer were added to wells first, and 2 μL of 1% DMSO (a final concentration of DMSO in the reaction system was 0.1%) was used to replace blank and control wells. Subsequently, 8 μL of enzyme working solution (a final concentration of Factor XIa was […]) was added to each well, and 8 μL of Factor XIa reaction buffer was used to replace the blank well, centrifuged for 30 seconds, and incubated on ice for 5 minutes. Finally, 10 μL of substrate working solution (a final concentration of S-2366 was 1 mM) was added to each well, and centrifuged for 30 seconds, and the reaction was started. The solution was incubated at 37° C. for 10 minutes to determine a light absorption value at 405 nm. By comparing with a light absorption value of the control group (0.1% DMSO), a percentage inhibition rate of the compound at each concentration was calculated, and nonlinear regression analysis was carried out on value-inhibition rate with the concentration of the compound by GraphPad Prism 5 software, so as to obtain an IC50 value of the compound, as shown in Table 1.

T1 sequence (P03951 388-625 limits assumed): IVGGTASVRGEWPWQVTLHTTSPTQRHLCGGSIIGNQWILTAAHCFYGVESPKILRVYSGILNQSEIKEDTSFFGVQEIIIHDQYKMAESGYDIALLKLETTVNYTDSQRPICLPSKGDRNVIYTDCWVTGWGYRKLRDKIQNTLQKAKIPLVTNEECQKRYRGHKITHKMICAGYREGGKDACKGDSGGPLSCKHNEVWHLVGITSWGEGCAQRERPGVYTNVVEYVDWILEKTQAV
T1 sequence (P03951 19-387 partner limits assumed): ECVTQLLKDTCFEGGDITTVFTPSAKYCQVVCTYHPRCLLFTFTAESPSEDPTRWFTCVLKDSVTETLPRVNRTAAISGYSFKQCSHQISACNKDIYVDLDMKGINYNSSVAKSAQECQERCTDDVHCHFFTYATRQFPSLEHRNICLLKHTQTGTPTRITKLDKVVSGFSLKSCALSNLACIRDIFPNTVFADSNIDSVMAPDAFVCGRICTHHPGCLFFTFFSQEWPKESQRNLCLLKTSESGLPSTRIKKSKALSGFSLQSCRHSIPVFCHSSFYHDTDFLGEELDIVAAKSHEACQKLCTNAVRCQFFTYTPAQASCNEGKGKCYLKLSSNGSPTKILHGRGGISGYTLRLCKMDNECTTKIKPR

| IC50 [1] [nM] | SMILES | CT2 (human plasma) [µM] |
| --- | --- | --- |
| – | Cn1cc2cc(NC(=O)C(Cc3cccc(F)c3)N3CC(=O)N(c4cc(Cl)ccc4-n4cc(Cl)nn4)CC3=O)ccc2n1 (stereo not drawn) [Example 46, 2-(4-(5-Chloro-2-(4-chloro-1H-1,2,3-triazol-1-yl)phenyl)-2,5-dioxopiperazin-1-yl)-3-(3-fluorophenyl)-N-(2-methyl-2H-indazol-5-yl)propanamide] | 19.1 |
| 43.2 | COc1nccc2cc(NC(=O)C(Cc3ccccc3)N3CC(=O)N(c4cc(Cl)ccc4-n4cnnn4)CC3=O)ccc12 (stereo not drawn) [Example 23, 2-(4-(5-Chloro-2-(1H-tetrazol-1-yl)phenyl)-2,5-dioxopiperazin-1-yl)-N-(1-methoxyisoquinolin-6-yl)-3-phenylpropanamide] | – |
| – | Cn1cc2cc(NC(=O)C(Cc3ccncc3)N3CC(=O)N(c4cc(Cl)ccc4-n4cc(Cl)nn4)CC3=O)ccc2n1 (stereo not drawn) [Example 105, 2-(4-(5-chloro-2-(4-chloro-1H-1,2,3-triazol-1-yl)phenyl)-2,5-dioxopiperazin-1-yl)-N-(2-methyl-2H-indazol-5-yl)-3-(pyridin-4-yl)propanamide] | 10.1 |
| – | N#Cc1ccc(NC(=O)C(Cc2ccccc2)N2CC(=O)N(c3cc(Cl)ccc3-n3cnnn3)CC2=O)cc1 (stereo not drawn) [Example 16, 2-(4-(5-chloro-2-(1H-tetrazol-1-yl)phenyl)-2,5-dioxopiperazin-1-yl)-N-(4-cyanophenyl)-3-phenylpropanamide] | 15.6 |
| – | Cn1cc2cc(NC(=O)C(Cc3ccn(C4CC4)n3)N3CC(=O)N(c4cc(Cl)ccc4-n4cc(Cl)nn4)CC3=O)ccc2n1 (stereo not drawn) [Example 123, 2-(4-(5-chloro-2-(4-chloro-1H-1,2,3-triazol-1-yl)phenyl)-2,5-dioxopiperazin-1-yl)-3-(1-cyclopropyl-1H-pyrazol-3-yl)-N-(2-methyl-2H-indazol-5-yl)propanamide] | 12.8 |
| 17.7 | COC(=O)N1CCc2cc(NC(=O)C(Cc3ccccc3)N3CC(=O)N(c4cc(Cl)ccc4-n4cnnn4)CC3=O)ccc21 (stereo not drawn) [Example 8, Methyl 5-(2-(4-(5-chloro-2-(1H-tetrazol-1-yl)phenyl)-2,5-dioxopiperazin-1-yl)-3-phenylpropanamido)indoline-1-carboxylate] | – |
| – | NC(=O)c1ccc(NC(=O)C(Cc2ccc(F)cc2)N2CC(=O)N(c3cc(Cl)ccc3-n3cc(Cl)nn3)CC2=O)cc1F (stereo not drawn) [Example 135, 4-(2-(4-(5-chloro-2-(4-chloro-1H-1,2,3-triazol-1-yl)phenyl)-2,5-dioxopiperazin-1-yl)-3-(4-fluorophenyl)propanamido)-2-fluorobenzamide] | 19.2 |
| – | Cn1cc2cc(NC(=O)C(Cc3cccnc3)N3CC(=O)N(c4cc(Cl)ccc4-n4cc(Cl)nn4)CC3=O)ccc2n1 (stereo not drawn) [Example 43, 2-(4-(5-Chloro-2-(4-chloro-1H-1,2,3-triazol-1-yl)phenyl)-2,5-dioxopiperazin-1-yl)-N-(2-methyl-2H-indazol-5-yl)-3-(pyridin-3-yl)propanamide] | 19.6 |
| – | Cn1cc(CC(C(=O)Nc2ccc3nn(C)cc3c2)N2CC(=O)N(c3cc(Cl)ccc3-n3cc(Cl)nn3)CC2=O)cn1 (stereo not drawn) [Example 131, 2-(4-(5-chloro-2-(4-chloro-1H-1,2,3-triazol-1-yl)phenyl)-2,5-dioxopiperazin-1-yl)-3-(1-methyl-1H-pyrazol-4-yl)-N-(2-methyl-2H-indazol-5-yl)propanamide] | 11.5 |
| – | Cn1cc2cc(NC(=O)C(CC3CCC3)N3CC(=O)N(c4cc(Cl)ccc4-n4cnnn4)CC3=O)ccc2n1 (stereo not drawn) [Example 39, 2-(4-(5-Chloro-2-(1H-tetrazol-1-yl)phenyl)-2,5-dioxopiperazin-1-yl)-3-cyclobutyl-N-(2-methyl-2H-indazol-5-yl)propanamide] | 12.7 |
| – | CNC(=O)c1ccc(NC(=O)C(Cc2ccc(F)cc2)N2CC(=O)N(c3cc(Cl)ccc3-n3cc(Cl)nn3)CC2=O)cc1F (stereo not drawn) [Example 134, 4-(2-(4-(5-chloro-2-(4-chloro-1H-1,2,3-triazol-1-yl)phenyl)-2,5-dioxopiperazin-1-yl)-3-(4-fluorophenyl)propanamido)-2-fluoro-N-methylbenzamide] | 19.4 |
| 23.2 | O=C(Nc1ccc2nccnc2c1)C(Cc1ccccc1)N1CC(=O)N(c2cc(Cl)ccc2-n2cc(Cl)nn2)CC1=O (stereo not drawn) [Example 24, 2-(4-(5-Chloro-2-(4-chloro-1H-1,2,3-triazol-1-yl)phenyl)-2,5-dioxopiperazin-1-yl)-3-phenyl-N-(quinoxalin-6-yl)propanamide] | – |
| 27.3 | NC(=O)c1ccc(NC(=O)[C@H](Cc2ccccc2)N2CC(=O)N(c3cc(Cl)ccc3-n3cc(Cl)nn3)CC2=O)cc1F [Example 137, (S)-4-(2-(4-(5-chloro-2-(4-chloro-1H-1,2,3-triazol-1-yl)phenyl)-2,5-dioxopiperazin-1-yl)-3-phenylpropanamido)-2-fluorobenzamide] | – |
| – | O=C(Nc1ccc2ccnn2c1)C(Cc1ccccc1)N1CC(=O)N(c2cc(Cl)ccc2-n2cnnn2)CC1=O (stereo not drawn) [Example 22, 2-(4-(5-Chloro-2-(1H-tetrazol-1-yl)phenyl)-2,5-dioxopiperazin-1-yl)-3-phenyl-N-(pyrazolo[1.5-a]pyridin-6-yl)propanamide] | 16.0 |
| – | Cn1cc2cc(NC(=O)C(CC3CCC3)N3CC(=O)N(c4cc(Cl)ccc4-n4cc(Cl)nn4)CC3=O)ccc2n1 (stereo not drawn) [Example 116, 2-(4-(5-chloro-2-(4-chloro-1H-1,2,3-triazol-1-yl)phenyl)-2,5-dioxopiperazin-1-yl)-3-cyclobutyl-N-(2-methyl-2H-indazol-5-yl)propanamide] | 14.0 |
| – | Cn1cc2cc(NC(=O)C(CCOC(C)(C)C)N3CC(=O)N(c4cc(Cl)ccc4-n4cc(Cl)nn4)CC3=O)ccc2n1 (stereo not drawn) [Example 122, 4-(tert-butoxy)-2-(4-(5-chloro-2-(4-chloro-1H-1,2,3-triazol-1-yl)phenyl)-2,5-dioxopiperazin-1-yl)-N-(2-methyl-2H-indazol-5-yl)butanamide] | 18.7 |
| – | CNC(=O)c1ccc(NC(=O)C(Cc2ccccc2)N2CC(=O)N(c3cc(Cl)ccc3-n3cc(Cl)nn3)CC2=O)cc1F (stereo not drawn) [Example 42, 4-(2-(4-(5-Chloro-2-(4-chloro-1H-1,2,3-triazol-1-yl)phenyl)-2,5-dioxopiperazin-1-yl)-3-phenylpropanamido)-2-fluoro-N-methylbenzamide] | 16.3 |
| – | Cn1cc2cc(NC(=O)C(Cc3ccn(C(F)F)n3)N3CC(=O)N(c4cc(Cl)ccc4-n4cc(Cl)nn4)CC3=O)ccc2n1 (stereo not drawn) [Example 132, 2-(4-(5-chloro-2-(4-chloro-1H-1,2,3-triazol-1-yl)phenyl)-2,5-dioxopiperazin-1-yl)-3-(1-(difluoromethyl)-1H-pyrazol-3-yl)-N-(2-methyl-2H-indazol-5-yl)propanamide] | 12.7 |
| – | CNC(=O)c1ccc(NC(=O)C(Cc2ccccc2)N2CC(=O)N(c3cc(Cl)ccc3-n3cnnn3)CC2=O)cn1 (stereo not drawn) [Example 29, 5-(2-(4-(5-Chloro-2-(1H-tetrazol-1-yl)phenyl)-2,5-dioxopiperazin-1-yl)-3-phenylpropanamido)-N-methylpicolinamide] | 6.7 |
| – | COCCC(C(=O)Nc1ccc2nn(C)cc2c1)N1CC(=O)N(c2cc(Cl)ccc2-n2cnnn2)CC1=O (stereo not drawn) [Example 32, 2-(4-(5-Chloro-2-(1H-tetrazol-1-yl)phenyl)-2,5-dioxopiperazin-1-yl)-4-methoxy-N-(2-methyl-2H-indazol-5-yl)butanamide] | 6.3 |
| – | [2H]C([2H])([2H])n1ccc(CC(C(=O)Nc2ccc3nn(C)cc3c2)N2CC(=O)N(c3cc(Cl)ccc3-n3cc(Cl)nn3)CC2=O)n1 (stereo not drawn) [Example 133, 2-(4-(5-chloro-2-(4-chloro-1H-1,2,3-triazol-1-yl)phenyl)-2,5-dioxopiperazin-1-yl)-N-(2-methyl-2H-indazol-5-yl)-3-(1-(methyl-d3)-1H-pyrazol-3-yl)propanamide] | 14.8 |
